The supplement of paper PMC11061612

Tests used:
Assay in all cases: Bliss excess, mean over the matrix (fraction); higher = more synergy
[1] = test system: CAL-39 (Other Solid Carcinomas)
Outline: (§1)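 Cell lines in DMEM/F12 or RPMI with 10% FBS were plated in 1536-well plates, held 24 hours at 37°C, 5% CO2, then given two-drug dose matrices for 72 hours (DMSO typically 0.2%). Viability was read by CellTiter-Glo 2.0 luminescence and scaled as inhibition from 0 (vehicle wells) to 1 (blank wells). Combination Emax is the second-highest inhibition in the matrix; Bliss excess is observed combination effect minus expected EA + EB − EA·EB, EA and EB being single-agent effects.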

[2] = test system: D-392MG (Glioblastoma)
Outline: as §1

[3] = test system: MSTO-211H (Mesothelioma)
Outline: as §1

[4] = test system: SNG-M (Endometrial Carcinoma)
Outline: as §1

[5] = test system: SW948 (Colorectal Carcinoma)
Outline: as §1

[6] = test system: D-283MED (Other Solid Carcinomas)
Outline: as §1

[7] = test system: CS1 (Chondrosarcoma)
Outline: as §1

[8] = test system: SK-MEL-1 (Melanoma)
Outline: as §1

[9] = test system: HLE (Hepatocellular Carcinoma)
Outline: as §1

[10] = test system: HCC38 (Breast Carcinoma)
Outline: as §1

[11] = test system: NOMO-1 (Acute Myeloid Leukemia)
Outline: as §1

[12] = test system: HCT-116 (Colorectal Carcinoma)
Outline: as §1

[13] = test system: YT (Other Blood Carcinomas)
Outline: as §1

[14] = test system: SK-LMS-1 (Other Solid Carcinomas)
Outline: as §1

Question: For `Cc1c2c(nn1C)CSCc1cc(n(C)n1)CSc1cc(c3ccccc3c1)OCCCc1c(C(=O)O)n(C)c3c-2c(Cl)ccc13` [AZD5991] + CC(=O)O[C@H]1C(=O)[C@@]2(C)[C@H]([C@H](OC(=O)c3ccccc3)[C@]3(O)C[C@H](OC(=O)[C@H](O)[C@@H](NC(=O)c4ccccc4)c4ccccc4)C(C)=C1C3(C)C)[C@]1(OC(C)=O)CO[C@@H]1C[C@@H]2O [Paclitaxel] (first compound max 1 µM, 7x7, partner max 3 µM), which Bliss excess [1] is on record?
Answer: -0.0154

Question: And the Bliss excess [2]?
Answer: 0.046

Question: What about the Bliss excess [3] of the same compound?
Answer: 0.0035

Question: What about the Bliss excess [4] of the same compound?
Answer: 0.0374

Question: And the Bliss excess [5]?
Answer: -0.0421

Question: What about the Bliss excess [6] of the same compound?
Answer: -0.0552

Question: And the Bliss excess [7]?
Answer: -0.012

Question: What about the Bliss excess [8] of the same compound?
Answer: -0.0045

Question: And the Bliss excess [9]?
Answer: -0.0411

Question: And the Bliss excess [10]?
Answer: -0.0632

Question: What about the Bliss excess [11] of the same compound?
Answer: -0.0215

Question: What about the Bliss excess [12] of the same compound?
Answer: -0.0211

Question: And the Bliss excess [13]?
Answer: -0.0159

Question: And the Bliss excess [14]?
Answer: -0.0569

Question: What does the source list for `N#Cc1cnc(Nc2cc(NC[C@H]3CNCCO3)c(C(F)(F)F)cn2)cn1` [SRA737] + O=c1[nH]cc(F)c(=O)[nH]1 [5-Fluorouracil] (first compound max 10 µM, 7x7, partner max 20 µM)?
Answer: Bliss excess [1]: 0.0175; Bliss excess [2]: -0.0369; Bliss excess [3]: 0.0301; Bliss excess [4]: -0.0115; Bliss excess [5]: -0.0314; Bliss excess [6]: -0.0048; Bliss excess [7]: -0.0251; Bliss excess [8]: -0.0178; Bliss excess [9]: -0.0146; Bliss excess [10]: 0.0257; Bliss excess [11]: -0.0007; Bliss excess [12]: 0.0445; Bliss excess [13]: 0.0012; Bliss excess [14]: -0.0143

Question: Which results are given for `Cc1cc2ncnn2cc1Nc1ncc2c(n1)n(C1CCOCC1)c(=O)n2C` [AZD7648] + COc1cc([C@@H]2c3cc4c(cc3[C@@H](O[C@@H]3O[C@@H]5CO[C@@H](C)O[C@H]5[C@H](O)[C@H]3O)[C@H]3COC(=O)[C@H]23)OCO4)cc(OC)c1O [Etoposide] (first compound max 10 µM, 7x7, partner max 10 µM)?
Answer: Bliss excess [1]: 0.0364; Bliss excess [2]: 0.0658; Bliss excess [3]: 0.0624; Bliss excess [4]: 0.157; Bliss excess [5]: -0.0456; Bliss excess [6]: 0.0835; Bliss excess [7]: 0.017; Bliss excess [8]: 0.0651; Bliss excess [9]: 0.116; Bliss excess [10]: 0.0373; Bliss excess [11]: 0.113; Bliss excess [12]: 0.13; Bliss excess [13]: 0.0495; Bliss excess [14]: 0.172

Question: Which Bliss excess [1] does the source give for `Cc1c2c(nn1C)CSCc1cc(n(C)n1)CSc1cc(c3ccccc3c1)OCCCc1c(C(=O)O)n(C)c3c-2c(Cl)ccc13` [AZD5991] + Nc1ccn([C@@H]2O[C@H](CO)[C@@H](O)C2(F)F)c(=O)n1 [Gemcitabine] (first compound max 1 µM, 7x7, partner max 0.3 µM) here?
Answer: 0.0269

Question: What about the Bliss excess [2] of the same compound?
Answer: -0.112

Question: And the Bliss excess [3]?
Answer: -0.0131

Question: What about the Bliss excess [4] of the same compound?
Answer: -0.0174

Question: What about the Bliss excess [5] of the same compound?
Answer: 0.0016

Question: And the Bliss excess [6]?
Answer: 0.0121

Question: And the Bliss excess [7]?
Answer: -0.0411

Question: And the Bliss excess [8]?
Answer: -0.0226

Question: And the Bliss excess [9]?
Answer: 0.0249

Question: And the Bliss excess [10]?
Answer: -0.0432

Question: And the Bliss excess [11]?
Answer: -0.0065

Question: What about the Bliss excess [12] of the same compound?
Answer: -0.0854

Question: What about the Bliss excess [13] of the same compound?
Answer: 0.0413

Question: And the Bliss excess [14]?
Answer: -0.009

Question: For `C[C@@H](Oc1cc(-c2cnn(C3CCNCC3)c2)cnc1N)c1c(Cl)ccc(F)c1Cl` [Crizotinib] + Cn1cnc2c(F)c(Nc3ccc(Br)cc3Cl)c(C(=O)NOCCO)cc21 [Selumetinib] (first compound max 10 µM, 7x7, partner max 10 µM), which Bliss excess [1] is on record?
Answer: 0.0132

Question: And the Bliss excess [2]?
Answer: -0.0718

Question: And the Bliss excess [3]?
Answer: 0.0294

Question: And the Bliss excess [4]?
Answer: -0.0333

Question: And the Bliss excess [5]?
Answer: 0.0137

Question: What about the Bliss excess [6] of the same compound?
Answer: -0.0049

Question: What about the Bliss excess [7] of the same compound?
Answer: -0.0203

Question: What about the Bliss excess [8] of the same compound?
Answer: -0.0618

Question: What about the Bliss excess [9] of the same compound?
Answer: 0.0014

Question: What about the Bliss excess [10] of the same compound?
Answer: -0.0447

Question: What about the Bliss excess [11] of the same compound?
Answer: 0.0157

Question: And the Bliss excess [12]?
Answer: 0.0323

Question: And the Bliss excess [13]?
Answer: -0.0587

Question: What about the Bliss excess [14] of the same compound?
Answer: 0.0367

Question: How did the Bliss excess [1] turn out when `C[C@@H](Nc1cc(F)cc(F)c1)c1cc(C(=O)N(C)C)cc2c(=O)cc(N3CCOCC3)oc12` [AZD8186] + C1CN(CCC1(C(=O)N[C@@H](CCO)C2=CC=C(C=C2)Cl)N)C3=NC=NC4=C3C=CN4 [AZD5363] (first compound max 10 µM, 7x7, partner max 10 µM) was run?
Answer: 0.0492

Question: What about the Bliss excess [2] of the same compound?
Answer: -0.122

Question: And the Bliss excess [3]?
Answer: 0.0272

Question: What about the Bliss excess [4] of the same compound?
Answer: -0.0046

Question: What about the Bliss excess [5] of the same compound?
Answer: 0.0414

Question: And the Bliss excess [6]?
Answer: -0.0143

Question: And the Bliss excess [7]?
Answer: -0.0711

Question: And the Bliss excess [8]?
Answer: -0.039

Question: What about the Bliss excess [9] of the same compound?
Answer: 0.0045

Question: What about the Bliss excess [10] of the same compound?
Answer: -0.0395

Question: What about the Bliss excess [11] of the same compound?
Answer: 0.0385

Question: And the Bliss excess [12]?
Answer: -0.0362

Question: What about the Bliss excess [13] of the same compound?
Answer: -0.0175

Question: And the Bliss excess [14]?
Answer: 0.0606

Question: What does the source list for `CN(CCO)CC[C@H](CSc1ccccc1)Nc1ccc(S(=O)(=O)NC(=O)c2ccc(N3CCC([C@@H](O)c4ccccc4-c4ccc(Cl)cc4)CC3)cc2)cc1S(=O)(=O)C(F)(F)F` [AZD4320] + CC(=O)O[C@H]1C(=O)[C@@]2(C)[C@H]([C@H](OC(=O)c3ccccc3)[C@]3(O)C[C@H](OC(=O)[C@H](O)[C@@H](NC(=O)c4ccccc4)c4ccccc4)C(C)=C1C3(C)C)[C@]1(OC(C)=O)CO[C@@H]1C[C@@H]2O [Paclitaxel] (first compound max 1 µM, 7x7, partner max 3 µM)?
Answer: Bliss excess [1]: 0.0298; Bliss excess [2]: 0.129; Bliss excess [3]: 0.105; Bliss excess [4]: 0.0275; Bliss excess [5]: -0.0074; Bliss excess [6]: -0.0081; Bliss excess [7]: 0.041; Bliss excess [8]: 0.0354; Bliss excess [9]: -0.0036; Bliss excess [10]: 0.0324; Bliss excess [11]: -0.0101; Bliss excess [12]: 0.0182; Bliss excess [13]: -0.0079; Bliss excess [14]: 0.0954
